{"source": "patent US6531156B1", "about": "“Aqueous solven encapsulation method, apparatus and microcapsules” (Temple University, priority 1994, dated 2003)", "key": {"[1]": {"assay": "pH response and retention of bromphenol blue in octadecylamine carboxymethylcellulose microcapsules", "format": "physicochemical", "settings": "for colour of microcapsules in acid medium: rehydrated and wet stored microcapsules", "procedure": "Step 1: A 100 milligram sample of bromphenol blue (Fisher Scientific Co.) was dissolved in 25 milliliters of a 0.1% solution of sodium carboxymethylcellulose (medium viscosity, Ruger Chemical Co.) and the resulting solution was slowly pumped (approximately 1 milliliter per minute) through a capillary drawn to a fine tip (0.1 millimeter o.d.). The emerging droplets were allowed to fall a distance of about 1 centimeter into a slowly stirred 0.1% aqueous solution of octadecylamine (Aldrich Chemical Co.) solubilized as the acetate at pH 7.0.\nStep 2: The resulting approximately 1.5 millimeter diameter microcapsules were stirred for an additional hour and separated with the aid of fine netting. The microcapsules were washed with two 100 milliliter volumes of water. About half the microcapsules were stored wet and refrigerated until used. The other half of the microcapsules were lyophilized and stored dry until used.\nStep 3: A few dozen of the lyophilized microcapsules were rehydrated in a few milliliters of water for an hour and were used in parallel with the wet stored microcapsules to test their sensitivity to pH. Dilutions of hydrochloric acid were made to provide solutions with pH values of 2, 3, and 4. To these hydrochloric acid solutions, a few rehydrated and a few wet stored microcapsules were added one at a time."}, "[2]": {"tested_on": "bovine rotavirus strain WC3", "settings": "WC3 stock diluted 1:50 in 0.05N sodium salt of polymer or 0.05M amine salt, pH 7.0, versus 0.9% NaCl"}, "[3]": {"settings": "spermine alginate microcapsules, 5 water washes, absorbance after dissolving microcapsules with sodium chloride"}}, "note": "Read-outs that look alike come from different tables or passages of the source."}
{"smiles": "O=S1(=O)OC(c2cc(Br)c(O)c(Br)c2)(c2cc(Br)c(O)c(Br)c2)c2ccccc21", "note": "[bromphenol blue]", "values": [{"measurement": "diffusion of encapsulated indicator out of the microcapsule", "setting": "[1]; octadecylamine carboxymethylcellulose microcapsules, rehydrated and wet stored", "value": "did not diffuse out of it"}, {"measurement": "colour of microcapsules in acid medium", "setting": "[1]; pH 3 solution", "value": "changed to yellow within a few minutes"}, {"measurement": "colour of microcapsules in acid medium", "setting": "[1]; pH 4 medium", "value": "remained blue"}]}
{"smiles": "CCCCCCCCCCCCN", "note": "[dodecylamine]", "values": [{"measurement": "reduction in rotavirus infectivity", "setting": "[2]", "value": "complete ablation"}]}
{"smiles": "O=c1[nH]cc(F)c(=O)[nH]1", "note": "[fluorouracil, Fluorouracil]", "values": [{"measurement": "initial amount of core material retained in the microcapsules during the repeated washings", "setting": "[3]", "value": "more than half"}]}
{"smiles": "CN(C)c1ccc2nc3ccc(=[N+](C)C)cc-3sc2c1", "note": "[methylene blue]", "values": [{"measurement": "reduction in rotavirus infectivity", "setting": "[2]", "value": "Essentially no effect"}]}
{"smiles": "C1CNCCN1", "note": "[piperazine]", "values": [{"measurement": "reduction in rotavirus infectivity", "setting": "[2]", "value": 30, "unit": "fold"}]}
{"smiles": "NCCCNCCCCNCCCN", "note": "[spermine]", "values": [{"measurement": "reduction in rotavirus infectivity", "setting": "[2]", "value": "Essentially no effect"}, {"measurement": "reduction in rotavirus infectivity", "setting": "[2]; listed as spermine hydrochloride", "value": "neither sodium alginate nor spermine hydrochloride reduced rotavirus infectivity"}]}
